Measured values: US8937078B2, “Quinazolinones as prolyl hydroxylase inhibitors” (Janssen Pharmaceutica NV, priority 2009, dated 2015)

Columns and labels:
human PHD2 (PHD2181-417) = molecular target: T1, human PHD2 (PHD2181-417) (Homo sapiens, UniProt Q9GZT9); experiment: PHD enzymatic assay ([14C]-succinic acid production); format: biochemical; conditions: PHD2181-417, HIF-1α peptide 10 μM, average of results; read-out: Enzyme pIC50 (converted)
T1 construct: Smt (SUMO) tag (cleaved yes); made in house; host or cells: E. coli BL21 (pBAD vector)
T1 sequence (Q9GZT9 181-417): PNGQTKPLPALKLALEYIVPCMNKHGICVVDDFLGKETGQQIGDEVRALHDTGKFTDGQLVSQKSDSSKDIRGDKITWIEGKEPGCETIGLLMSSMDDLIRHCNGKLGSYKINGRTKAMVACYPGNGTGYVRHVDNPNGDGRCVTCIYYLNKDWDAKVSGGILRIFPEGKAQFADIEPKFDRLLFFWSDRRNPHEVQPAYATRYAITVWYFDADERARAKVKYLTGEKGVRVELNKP
Method: Protein production was achieved by expression in BL21 cells grown in Terrific Broth containing 100 μg/ml ampicillin. Cell cultures were inoculated at 37° C. and grown to an OD600 of 0.8. Cultures were induced with 0.1% arabinose and grown overnight at 20° C. with continuous shaking at 225 rpm. Cells were then harvested by centrifugation and stored at −80° C. Cell pellets were suspended in Buffer A (50 mM Tris-HCl pH 7.2, 100 mM NaCl, 100 mM L-arginine, 1 mM TCEP, 0.05% (w/v) NP-40, 50 mM imidazole) followed by the addition of lysozyme and benzonase. Cells were lysed by sonication and the lysate was cleared by centrifugation (15,000 rpm, 90 min, 4° C.). The protein was purified by nickel affinity chromatography using a HisTrap Crude FF column (GE Healthcare). Samples were eluted in Buffer A with a 50-200 mM imidazole gradient. […] The flow-through was then dialyzed into 50 mM MES pH 6.0, 1 mM TCEP, 5 mM NaCl for ion exchange chromatography on a HiTrap SP Cation Exchange column (GE Healthcare). […] Fractions were pooled for further purification by size exclusion chromatography over a Superdex 75 Size Exclusion Column (GE Healthcare). Final protein was concentrated to 4 mg/ml and dialyzed in 10 mM PIPES pH 7.0, 100 mM NaCl, 0.5 mM TCEP.
(10 μM, California Peptide Research Inc., Napa, Calif.), and [5-^14C]-2-oxoglutaric acid (50 mCi/mmol, Moravek Chemicals, Brea, Calif.) in reaction buffer (40 mM Tris-HCl, pH 7.5, 0.4 mg/ml catalase, 0.5 mM DTT, 1 mM ascorbate) for 10 minutes. The reaction was stopped by addition of 50 μl of 70 mM H3PO4 and 50 μl of 500 mM NaH2PO4, pH3.2. Detection of [^14C]-succinic acid was achieved by separating from [5-^14C]-2-oxoglutaric acid by incubating the reaction mixture with 100 μl of 0.16 M DNP prepared in 30% perchloric acid. Next, 50 μl of unlabeled 20 mM 2-oxoglutaric acid/20 mM succinic acid, serving as carrier for the radioactivity, was added to the mixture, and was allowed to proceed for 30 minutes at room temperature. The reaction was then incubated with 50 μl of 1 M 2-oxoglutaric acid for 30 additional minutes at room temperature to precipitate the excess DNP. The reaction was then centrifuged at 2800×g for 10 minutes at room temperature to separate [^14C]-succinic acid in the supernatant from the precipitated [^14C]-dinitrophenylhydrazone. Fractions of the supernatant (400 μl) were counted using a beta counter (Beckman Coulter, Fullerton, Calif.).

Hep-3B cells = experiment: Cellular assay: erythropoietin secretion in Hep-3B cells; format: cell-based, human; conditions: Homo sapiens, Hep3B, 100 μM compound, 24 hours, percent of EPO secretion relative to assay control compound 7-[(4-Chloro-phenyl)-(5-methyl-isoxazol-3-ylamino)-methyl]-quinolin-8-ol, read-out: Cellular % EPO Stimulation
Method: Hep-3B cells (ATCC, Manassas, Va.) were plated in 96-well plates at 20,000 cells per well in 100 μl of DMEM containing 10% fetal bovine serum, 1% non-essential amino acids, 50 IU/mL of penicillin and 50 μg/mL of streptomycin (all cell culture reagents from Invitrogen, Carlsbad, Calif.). Twenty-four hours after plating, compounds were added and incubated for an additional 24 hours. All compounds were tested under saturating conditions with final compound concentrations at 100 μM. Fifty microliters of the supernatant was then transferred to a human Hypoxia assay kit (Meso-Scale Discovery, Gaithersburg, Md.). Erythropoietin in the supernatant was detected according to the manufacturer's instructions as follows. EPO detection plates were blocked with 3% BSA in PBS overnight and 50 μl of the supernatant was incubated at room temperature in an orbital shaker for 2 h. Twenty-five microliters of 0.5 μg/ml anti-EPO detection antibody was added for 2 hours at room temperature in an orbital shaker. After 3 washes in PBS, 150 μl of 1× read buffer is added and the plate is then read on the MSD SECTOR instrument.

IC50 (human PHD2 (PHD2181-417))	Compound	Emax at 100 µM (Hep-3B cells)
20 nM	COc1cc2nc(-n3cc(C(=O)O)cn3)[nH]c(=O)c2cc1Oc1c(C)cccc1C [Example 61, 1-[6-(2,6-Dimethyl-phenoxy)-7-methoxy-4-oxo-3,4-dihydro-quinazolin-2-yl]-1H-pyrazole-4-carboxylic acid]	86%
79.4 nM	O=C(O)c1cnn(-c2nc3cc(-c4ccccc4)ccc3c(=O)[nH]2)c1 [Example 184, 1-(4-Oxo-7-phenyl-3,4-dihydro-quinazolin-2-yl)-1H-pyrazole-4-carboxylic acid]	12%
25.1 nM	COc1ccc2nc(-n3cc(C(=O)O)cn3)[nH]c(=O)c2c1 [Example 122, 1-(6-Methoxy-4-oxo-3,4-dihydro-quinazolin-2-yl)-1H-pyrazole-4-carboxylic acid]	16%
126 nM	CC(C)c1ccc2c(=O)[nH]c(-n3cc(C(=O)O)cn3)nc2c1 [Example 146, 1-(7-Isopropyl-4-oxo-3,4-dihydro-quinazolin-2-yl)-1H-pyrazole-4-carboxylic acid]	16%
25.1 nM	O=C(O)c1cnn(-c2nc3cc(F)c(Oc4c(Cl)cccc4Cl)c(F)c3c(=O)[nH]2)c1 [Example 101, 1-[6-(2,6-dichloro-phenoxy)-5,7-difluoro-4-oxo-3,4-dihydro-quinazolin-2-yl]-1H-pyrazole-4-carboxylic acid]	24%
15.8 nM	COc1ccc(-c2ccc3nc(-n4cc(C(=O)O)cn4)[nH]c(=O)c3c2)cc1 [Example 200, 1-[6-(4-Methoxy-phenyl)-4-oxo-3,4-dihydro-quinazolin-2-yl]-1H-pyrazole-4-carboxylic acid]	118%
20 nM	Cc1cc(C)cc(Oc2ccc3nc(-n4cc(C(=O)O)cn4)[nH]c(=O)c3c2)c1 [Example 98, 1-[6-(3,5-dimethyl-phenoxy)-4-oxo-3,4-dihydro-quinazolin-2-yl]-1H-pyrazole-4-carboxylic acid]	85%
25.1 nM	O=C(O)c1cnn(-c2nc3ccc(NCc4ccccc4)cc3c(=O)[nH]2)c1 [Example 171, 1-(6-Benzylamino-4-oxo-3,4-dihydro-quinazolin-2-yl)-1H-pyrazole-4-carboxylic acid]	34%
10 nM	CCOc1ccc2nc(-n3cc(C(=O)O)cn3)[nH]c(=O)c2c1 [Example 121, 1-(6-Ethoxy-4-oxo-3,4-dihydro-quinazolin-2-yl)-1H-pyrazole-4-carboxylic acid]	30%
25.1 nM	O=C(O)c1cnn(-c2nc3ccc(Oc4ccc(Cl)cc4Cl)cc3c(=O)[nH]2)c1 [Example 39, 1-[6-(2,4-Dichloro-phenoxy)-4-oxo-3,4-dihydro-quinazolin-2-yl]-1H-pyrazole-4-carboxylic acid]	77%
25.1 nM	O=C(O)c1cnn(-c2nc3ccc(NCc4cccc(Cl)c4)cc3c(=O)[nH]2)c1 [Example 182, 1-[6-(3-Chloro-benzylamino)-4-oxo-3,4-dihydro-quinazolin-2-yl]-1H-pyrazole-4-carboxylic acid]	26%
25.1 nM	Cc1cc2nc(-n3cc(C(=O)O)cn3)[nH]c(=O)c2cc1Oc1cc(Cl)ccc1Cl [Example 90, 1-[6-(2,5-dichloro-phenoxy)-7-methyl-4-oxo-3,4-dihydro-quinazolin-2-yl]-1H-pyrazole-4-carboxylic acid]	113%
25.1 nM	O=C(O)c1cnn(-c2nc3cc(Cl)c(N4CCc5ccc(Br)cc5C4)cc3c(=O)[nH]2)c1 [Example 85, 1-[6-(7-Bromo-3,4-dihydro-1H-isoquinolin-2-yl)-7-chloro-4-oxo-3,4-dihydro-quinazolin-2-yl]-1H-pyrazole-4-carboxylic acid]	49%
20 nM	Cc1cccc(C)c1Oc1c(F)cc2nc(-n3cc(C(=O)O)cn3)[nH]c(=O)c2c1F [Example 63, 1-[6-(2,6-Dimethyl-phenoxy)-5,7-difluoro-4-oxo-3,4-dihydro-quinazolin-2-yl]-1H-pyrazole-4-carboxylic acid]	14%
25.1 nM	CS(=O)(=O)c1cccc(-c2ccc3nc(-n4cc(C(=O)O)cn4)[nH]c(=O)c3c2)c1 [Example 206, 1-[6-(3-Methanesulfonyl-phenyl)-4-oxo-3,4-dihydro-quinazolin-2-yl]-1H-pyrazole-4-carboxylic acid]	13%
20 nM	Cc1cc(C)cc(Oc2cc3c(=O)[nH]c(-n4cc(C(=O)O)cn4)nc3cc2F)c1 [Example 94, 1-[6-(3,5-dimethyl-phenoxy)-7-fluoro-4-oxo-3,4-dihydro-quinazolin-2-yl]-1 H-pyrazole-4-carboxylic acid]	90%
39.8 nM	O=C(O)c1cnn(-c2nc3cc(Cl)c([S+]([O-])C(F)(F)F)cc3c(=O)[nH]2)c1 (centres unmarked) [Example 160, 1-(7-Chloro-4-oxo-6-trifluoromethanesulfinyl-3,4-dihydro-quinazolin-2-yl)-1H-pyrazole-4-carboxylic acid]	13%
398 nM	CC(C)(C)c1ccc2c(=O)[nH]c(-n3cc(C(=O)O)cn3)nc2c1 [Example 147, 1-(7-tert-Butyl-4-oxo-3,4-dihydro-quinazolin-2-yl)-1H-pyrazole-4-carboxylic acid]	11%
25.1 nM	O=C(O)c1cnn(-c2nc3ccc(NCc4c(Cl)cccc4Cl)cc3c(=O)[nH]2)c1 [Example 181, 1-[6-(2,6-Dichloro-benzylamino)-4-oxo-3,4-dihydro-quinazolin-2-yl]-1H-pyrazole-4-carboxylic acid]	118%
39.8 nM	O=C(O)c1cnn(-c2nc3ccc(N4CCCCC4)cc3c(=O)[nH]2)c1 [Example 124, 1-(4-Oxo-6-piperidin-1-yl-3,4-dihydro-quinazolin-2-yl)-1H-pyrazole-4-carboxylic acid]	71%
31.6 nM	O=C(O)c1cnn(-c2nc3cc(Cc4ccccc4)ccc3c(=O)[nH]2)c1 [Example 136, 1-(7-Benzyl-4-oxo-3,4-dihydro-quinazolin-2-yl)-1H-pyrazole-4-carboxylic acid]	23%
79.4 nM	Cc1ccccc1-c1ccc2c(=O)[nH]c(-n3cc(C(=O)O)cn3)nc2c1 [Example 188, 1-(4-Oxo-7-o-tolyl-3,4-dihydro-quinazolin-2-yl)-1H-pyrazole-4-carboxylic acid]	11%
25.1 nM	O=C(O)c1cnn(-c2nc3ccc(-c4ccccc4C(F)(F)F)cc3c(=O)[nH]2)c1 [Example 201, 1-[4-Oxo-6-(2-trifluoromethyl-phenyl)-3,4-dihydro-quinazolin-2-yl]-1H-pyrazole-4-carboxylic acid]	78%
39.8 nM	O=C(O)c1cnn(-c2nc3ccc4c(c3c(=O)[nH]2)CCCC4)c1 [Example 144, 1-(1-Oxo-1,2,7,8,9,10-hexahydro-benzo[f]quinazolin-3-yl)-1H-pyrazole-4-carboxylic acid]	42%
50.1 nM	O=C(O)c1cnn(-c2nc3cc(-c4cccc(Cl)c4)ccc3c(=O)[nH]2)c1 [Example 186, 1-[7-(3-Chloro-phenyl)-4-oxo-3,4-dihydro-quinazolin-2-yl]-1H-pyrazole-4-carboxylic acid]	26%
